ChEMBL document CHEMBL4706616, “Design, synthesis, and evaluation of substituted 2-acylamide-1,3-benzo[d]zole analogues as agents against MDR- and XDR-MTB” (Eur J Med Chem, 2021)
≈ marks a conversion by molar mass, not a printed value.

Experiments:
[1] = system: Mycobacterium tuberculosis; assay: Antitubercular activity against isoniazid/rifampicin multidrug-resistant Mycobacterium tuberculosis FJ05120 clinical isolates assessed as bacterial growth inhibition by MABA; format: functional
[2] = system: Mycobacterium tuberculosis; assay: Antitubercular activity against isoniazid/rifampicin/streptomycin/capreomycin/ofloxacin extensively drug-resistant Mycobacterium tuberculosis FJ05195 clinical isolates assessed as bacterial growth inhibition by MABA; format: functional

Row | SMILES | MIC [1] | MIC [2]
1 | O=C(Nc1nc2ccccc2o1)c1ccc(Cl)s1 | 14.3 µM (≈ 4 µg/mL) | 14.3 µM (≈ 4 µg/mL)
2 | Cc1nnsc1C(=O)Nc1nc2cc(-c3cccnc3)ccc2o1 | 1.48 µM (≈ 0.499 µg/mL) | 2.96 µM (≈ 0.999 µg/mL)
3 | Cc1nnsc1C(=O)Nc1nc2c(-c3ccccn3)cccc2o1 | 23.7 µM (≈ 8 µg/mL) | 47.4 µM (≈ 16 µg/mL)
4 | Cc1nnsc1C(=O)Nc1nc2c(ccc3cccnc32)o1 | 6.42 µM (≈ 2 µg/mL) | 25.7 µM (≈ 8 µg/mL)
5 | Cc1nnsc1C(=O)Nc1nc2ccc(Cl)cc2o1 | 0.42 µM (≈ 0.124 µg/mL) | 0.85 µM (≈ 0.251 µg/mL)
6 | Cc1nnsc1C(=O)Nc1nc2cc(F)ccc2o1 | 0.45 µM (≈ 0.125 µg/mL) | 1.8 µM (≈ 0.501 µg/mL)
7 | Cc1nnsc1C(=O)Nc1nc2c(Oc3ncccn3)cccc2o1 | 5.64 µM (≈ 2 µg/mL) | 2.82 µM (≈ 0.999 µg/mL)
8 | Cc1nnsc1C(=O)Nc1nc2c(OCc3ccccn3)cccc2o1 | 2.72 µM (≈ 0.999 µg/mL) | 5.44 µM (≈ 2 µg/mL)
9 | Cc1nnsc1C(=O)Nc1nc2cc(Br)ccc2o1 | 1.47 µM (≈ 0.499 µg/mL) | 1.47 µM (≈ 0.499 µg/mL)
10 | COC(=O)c1ccc(-c2ccc3oc(NC(=O)c4snnc4C)nc3c2)cc1 | 0.63 µM (≈ 0.248 µg/mL) | 0.63 µM (≈ 0.248 µg/mL)
11 | O=C(Nc1nc2ccccc2o1)c1ccco1 | 70.1 µM (≈ 16 µg/mL) | 35.1 µM (≈ 8 µg/mL)
12 | Cc1nnsc1C(=O)Nc1nc2cc(C(C)(C)C)ccc2o1 | 0.4 µM (≈ 0.127 µg/mL) | 0.4 µM (≈ 0.127 µg/mL)
13 | Cc1nnsc1C(=O)Nc1nc2cc(-c3ccccn3)ccc2o1 | 0.37 µM (≈ 0.125 µg/mL) | 0.37 µM (≈ 0.125 µg/mL)
14 | Cc1nnsc1C(=O)Nc1nc2cc(-c3cnn(C)c3)ccc2o1 | 0.73 µM (≈ 0.248 µg/mL) | 1.47 µM (≈ 0.5 µg/mL)
15 | Cc1ccc2oc(NC(=O)c3snnc3C)nc2c1 | 7.29 µM (≈ 2 µg/mL) | 7.29 µM (≈ 2 µg/mL)
16 | COC(=O)c1ccc2oc(NC(=O)c3snnc3C)nc2c1 | 1.57 µM (≈ 0.5 µg/mL) | 3.14 µM (≈ 1 µg/mL)
17 | Cc1nnsc1C(=O)Nc1nc2cc(N3CCOCC3)ccc2o1 | 23.2 µM (≈ 8 µg/mL) | 23.2 µM (≈ 8 µg/mL)

Row | SMILES | MIC [1] | MIC [2]
18 | Cc1nnsc1C(=O)Nc1nc2ccccc2[nH]1 | 30.9 µM (≈ 8 µg/mL) | 30.9 µM (≈ 8 µg/mL)
19 | Cc1nnsc1C(=O)Nc1nc2c(ccc3ccccc32)o1 | 103 µM (≈ 32 µg/mL) | 103 µM (≈ 32 µg/mL)
20 | Cc1nnsc1C(=O)Nc1nc2cc(Cl)ccc2o1 | 1.7 µM (≈ 0.501 µg/mL) | 1.7 µM (≈ 0.501 µg/mL)
21 | Cc1nnsc1C(=O)Nc1nc2c(Br)cccc2o1 | 0.74 µM (≈ 0.251 µg/mL) | 0.74 µM (≈ 0.251 µg/mL)
22 | O=C(Nc1nc2ccccc2o1)c1cccs1 | 32.8 µM (≈ 8 µg/mL) | 32.8 µM (≈ 8 µg/mL)
23 | Cc1nnsc1C(=O)Nc1nc2ccccc2s1 | 57.9 µM (≈ 16 µg/mL) | 57.9 µM (≈ 16 µg/mL)
24 | Cc1nnsc1C(=O)Nc1nc2ccccc2o1 | 0.48 µM (≈ 0.125 µg/mL) | 0.48 µM (≈ 0.125 µg/mL)
25 | Cc1nnsc1C(=O)Nc1nc2cc(-c3ccncc3)ccc2o1 | 0.74 µM (≈ 0.25 µg/mL) | 1.48 µM (≈ 0.499 µg/mL)
26 | Cc1nnsc1C(=O)Nc1nc2ncccc2o1 | 3.83 µM (≈ 1 µg/mL) | 7.66 µM (≈ 2 µg/mL)
27 | Cc1nnsc1C(=O)Nc1nc2c(ccc3ncccc32)o1 | 25.7 µM (≈ 8 µg/mL) | 25.7 µM (≈ 8 µg/mL)
28 | Cc1nnsc1C(=O)Nc1nc2ccc(C(C)(C)C)cc2o1 | 6.32 µM (≈ 2 µg/mL) | 6.32 µM (≈ 2 µg/mL)
29 | O=C(Nc1nc2ccccc2o1)c1ccccc1 | 537 µM (≈ 128 µg/mL) | 537 µM (≈ 128 µg/mL)
30 | CC[C@@H](CO)NCCN[C@@H](CC)CO [ETHAMBUTOL] | 4.89 µM (≈ 0.999 µg/mL) | 39.2 µM (≈ 8 µg/mL)
31 | NNC(=O)c1ccncc1 [ISONIAZID] | 7.29 µM (≈ 1 µg/mL) | 29.2 µM (≈ 4 µg/mL)
32 | CO[C@H]1/C=C/O[C@@]2(C)Oc3c(C)c(O)c4c(O)c(c(/C=N/N5CCN(C)CC5)c(O)c4c3C2=O)NC(=O)/C(C)=C\C=C\[C@H](C)[C@H](O)[C@@H](C)[C@@H](O)[C@@H](C)[C@H](OC(C)=O)[C@@H]1C [RIFAMPIN] | > 311 µM | > 311 µM
33 | CN[C@@H]1[C@H](O[C@H]2[C@H](O[C@H]3[C@H](O)[C@@H](O)[C@H](N=C(N)N)[C@@H](O)[C@@H]3N=C(N)N)O[C@@H](C)[C@]2(O)C=O)O[C@@H](CO)[C@H](O)[C@H]1O [STREPTOMYCIN] | < 0.69 µM | 87.8 µM (≈ 51.1 µg/mL)
